Data set [1] in a line: Self-fluorescence of dyes and plaque substances by fluorescent microscopy. The data set is classed as physicochemical. Also noted: key to Self-fluorescence colour: B: blue.; G: green.; O: orange.; W: white.; Y: yellow. The following applies: for Self-fluorescence present or not: exciting 360/emitting 420 nm or exciting 470/emitting 515 nm.
In data set [2] the target is T1, ApoB100 (apolipoprotein B100) (Homo sapiens, UniProt P04114).
T1 construct: purchased ICN Biomedicals, Ohio
Put plainly: Dye-evoked fluorescence of ApoB100, fluorescent microscopy. On the set-up: key: B: blue.; G: green.; O: orange.; W: white.; Y: yellow.

Data set [3] addresses T1, ApoB100 (apolipoprotein B100). Described as above. Also noted: key: RO: reddish orange. Particulars: ApoB (Table 4).
For data set [4] the target is unchanged. The description is as above. Also noted: key: B: blue.; Br: brown.; G: green.; Go: gold.; O: orange.; P: purple.; R: red.; SB: sky blue.; V: violet.; W: white.; Y: yellow. The following applies: exciting 360 nm, emitting 420 nm.
[5] abbreviates: exciting 360 nm, emitting 420 nm.
[6] abbreviates: exciting 470 nm, emitting 515 nm.
Setting [7] is: exciting filter 360 nm, emitting filter 420 nm.
Setting [8] is: exciting filter 470 nm, emitting filter 515 nm.

The text below walks through data of patent US20060062732A1, “Medicine for detecting lipid components in vivo and vascular endoscope” (Yasumi UCHIDA, priority 2004, published 2006).

T1 sequence (P04114 28-4563, species assumed): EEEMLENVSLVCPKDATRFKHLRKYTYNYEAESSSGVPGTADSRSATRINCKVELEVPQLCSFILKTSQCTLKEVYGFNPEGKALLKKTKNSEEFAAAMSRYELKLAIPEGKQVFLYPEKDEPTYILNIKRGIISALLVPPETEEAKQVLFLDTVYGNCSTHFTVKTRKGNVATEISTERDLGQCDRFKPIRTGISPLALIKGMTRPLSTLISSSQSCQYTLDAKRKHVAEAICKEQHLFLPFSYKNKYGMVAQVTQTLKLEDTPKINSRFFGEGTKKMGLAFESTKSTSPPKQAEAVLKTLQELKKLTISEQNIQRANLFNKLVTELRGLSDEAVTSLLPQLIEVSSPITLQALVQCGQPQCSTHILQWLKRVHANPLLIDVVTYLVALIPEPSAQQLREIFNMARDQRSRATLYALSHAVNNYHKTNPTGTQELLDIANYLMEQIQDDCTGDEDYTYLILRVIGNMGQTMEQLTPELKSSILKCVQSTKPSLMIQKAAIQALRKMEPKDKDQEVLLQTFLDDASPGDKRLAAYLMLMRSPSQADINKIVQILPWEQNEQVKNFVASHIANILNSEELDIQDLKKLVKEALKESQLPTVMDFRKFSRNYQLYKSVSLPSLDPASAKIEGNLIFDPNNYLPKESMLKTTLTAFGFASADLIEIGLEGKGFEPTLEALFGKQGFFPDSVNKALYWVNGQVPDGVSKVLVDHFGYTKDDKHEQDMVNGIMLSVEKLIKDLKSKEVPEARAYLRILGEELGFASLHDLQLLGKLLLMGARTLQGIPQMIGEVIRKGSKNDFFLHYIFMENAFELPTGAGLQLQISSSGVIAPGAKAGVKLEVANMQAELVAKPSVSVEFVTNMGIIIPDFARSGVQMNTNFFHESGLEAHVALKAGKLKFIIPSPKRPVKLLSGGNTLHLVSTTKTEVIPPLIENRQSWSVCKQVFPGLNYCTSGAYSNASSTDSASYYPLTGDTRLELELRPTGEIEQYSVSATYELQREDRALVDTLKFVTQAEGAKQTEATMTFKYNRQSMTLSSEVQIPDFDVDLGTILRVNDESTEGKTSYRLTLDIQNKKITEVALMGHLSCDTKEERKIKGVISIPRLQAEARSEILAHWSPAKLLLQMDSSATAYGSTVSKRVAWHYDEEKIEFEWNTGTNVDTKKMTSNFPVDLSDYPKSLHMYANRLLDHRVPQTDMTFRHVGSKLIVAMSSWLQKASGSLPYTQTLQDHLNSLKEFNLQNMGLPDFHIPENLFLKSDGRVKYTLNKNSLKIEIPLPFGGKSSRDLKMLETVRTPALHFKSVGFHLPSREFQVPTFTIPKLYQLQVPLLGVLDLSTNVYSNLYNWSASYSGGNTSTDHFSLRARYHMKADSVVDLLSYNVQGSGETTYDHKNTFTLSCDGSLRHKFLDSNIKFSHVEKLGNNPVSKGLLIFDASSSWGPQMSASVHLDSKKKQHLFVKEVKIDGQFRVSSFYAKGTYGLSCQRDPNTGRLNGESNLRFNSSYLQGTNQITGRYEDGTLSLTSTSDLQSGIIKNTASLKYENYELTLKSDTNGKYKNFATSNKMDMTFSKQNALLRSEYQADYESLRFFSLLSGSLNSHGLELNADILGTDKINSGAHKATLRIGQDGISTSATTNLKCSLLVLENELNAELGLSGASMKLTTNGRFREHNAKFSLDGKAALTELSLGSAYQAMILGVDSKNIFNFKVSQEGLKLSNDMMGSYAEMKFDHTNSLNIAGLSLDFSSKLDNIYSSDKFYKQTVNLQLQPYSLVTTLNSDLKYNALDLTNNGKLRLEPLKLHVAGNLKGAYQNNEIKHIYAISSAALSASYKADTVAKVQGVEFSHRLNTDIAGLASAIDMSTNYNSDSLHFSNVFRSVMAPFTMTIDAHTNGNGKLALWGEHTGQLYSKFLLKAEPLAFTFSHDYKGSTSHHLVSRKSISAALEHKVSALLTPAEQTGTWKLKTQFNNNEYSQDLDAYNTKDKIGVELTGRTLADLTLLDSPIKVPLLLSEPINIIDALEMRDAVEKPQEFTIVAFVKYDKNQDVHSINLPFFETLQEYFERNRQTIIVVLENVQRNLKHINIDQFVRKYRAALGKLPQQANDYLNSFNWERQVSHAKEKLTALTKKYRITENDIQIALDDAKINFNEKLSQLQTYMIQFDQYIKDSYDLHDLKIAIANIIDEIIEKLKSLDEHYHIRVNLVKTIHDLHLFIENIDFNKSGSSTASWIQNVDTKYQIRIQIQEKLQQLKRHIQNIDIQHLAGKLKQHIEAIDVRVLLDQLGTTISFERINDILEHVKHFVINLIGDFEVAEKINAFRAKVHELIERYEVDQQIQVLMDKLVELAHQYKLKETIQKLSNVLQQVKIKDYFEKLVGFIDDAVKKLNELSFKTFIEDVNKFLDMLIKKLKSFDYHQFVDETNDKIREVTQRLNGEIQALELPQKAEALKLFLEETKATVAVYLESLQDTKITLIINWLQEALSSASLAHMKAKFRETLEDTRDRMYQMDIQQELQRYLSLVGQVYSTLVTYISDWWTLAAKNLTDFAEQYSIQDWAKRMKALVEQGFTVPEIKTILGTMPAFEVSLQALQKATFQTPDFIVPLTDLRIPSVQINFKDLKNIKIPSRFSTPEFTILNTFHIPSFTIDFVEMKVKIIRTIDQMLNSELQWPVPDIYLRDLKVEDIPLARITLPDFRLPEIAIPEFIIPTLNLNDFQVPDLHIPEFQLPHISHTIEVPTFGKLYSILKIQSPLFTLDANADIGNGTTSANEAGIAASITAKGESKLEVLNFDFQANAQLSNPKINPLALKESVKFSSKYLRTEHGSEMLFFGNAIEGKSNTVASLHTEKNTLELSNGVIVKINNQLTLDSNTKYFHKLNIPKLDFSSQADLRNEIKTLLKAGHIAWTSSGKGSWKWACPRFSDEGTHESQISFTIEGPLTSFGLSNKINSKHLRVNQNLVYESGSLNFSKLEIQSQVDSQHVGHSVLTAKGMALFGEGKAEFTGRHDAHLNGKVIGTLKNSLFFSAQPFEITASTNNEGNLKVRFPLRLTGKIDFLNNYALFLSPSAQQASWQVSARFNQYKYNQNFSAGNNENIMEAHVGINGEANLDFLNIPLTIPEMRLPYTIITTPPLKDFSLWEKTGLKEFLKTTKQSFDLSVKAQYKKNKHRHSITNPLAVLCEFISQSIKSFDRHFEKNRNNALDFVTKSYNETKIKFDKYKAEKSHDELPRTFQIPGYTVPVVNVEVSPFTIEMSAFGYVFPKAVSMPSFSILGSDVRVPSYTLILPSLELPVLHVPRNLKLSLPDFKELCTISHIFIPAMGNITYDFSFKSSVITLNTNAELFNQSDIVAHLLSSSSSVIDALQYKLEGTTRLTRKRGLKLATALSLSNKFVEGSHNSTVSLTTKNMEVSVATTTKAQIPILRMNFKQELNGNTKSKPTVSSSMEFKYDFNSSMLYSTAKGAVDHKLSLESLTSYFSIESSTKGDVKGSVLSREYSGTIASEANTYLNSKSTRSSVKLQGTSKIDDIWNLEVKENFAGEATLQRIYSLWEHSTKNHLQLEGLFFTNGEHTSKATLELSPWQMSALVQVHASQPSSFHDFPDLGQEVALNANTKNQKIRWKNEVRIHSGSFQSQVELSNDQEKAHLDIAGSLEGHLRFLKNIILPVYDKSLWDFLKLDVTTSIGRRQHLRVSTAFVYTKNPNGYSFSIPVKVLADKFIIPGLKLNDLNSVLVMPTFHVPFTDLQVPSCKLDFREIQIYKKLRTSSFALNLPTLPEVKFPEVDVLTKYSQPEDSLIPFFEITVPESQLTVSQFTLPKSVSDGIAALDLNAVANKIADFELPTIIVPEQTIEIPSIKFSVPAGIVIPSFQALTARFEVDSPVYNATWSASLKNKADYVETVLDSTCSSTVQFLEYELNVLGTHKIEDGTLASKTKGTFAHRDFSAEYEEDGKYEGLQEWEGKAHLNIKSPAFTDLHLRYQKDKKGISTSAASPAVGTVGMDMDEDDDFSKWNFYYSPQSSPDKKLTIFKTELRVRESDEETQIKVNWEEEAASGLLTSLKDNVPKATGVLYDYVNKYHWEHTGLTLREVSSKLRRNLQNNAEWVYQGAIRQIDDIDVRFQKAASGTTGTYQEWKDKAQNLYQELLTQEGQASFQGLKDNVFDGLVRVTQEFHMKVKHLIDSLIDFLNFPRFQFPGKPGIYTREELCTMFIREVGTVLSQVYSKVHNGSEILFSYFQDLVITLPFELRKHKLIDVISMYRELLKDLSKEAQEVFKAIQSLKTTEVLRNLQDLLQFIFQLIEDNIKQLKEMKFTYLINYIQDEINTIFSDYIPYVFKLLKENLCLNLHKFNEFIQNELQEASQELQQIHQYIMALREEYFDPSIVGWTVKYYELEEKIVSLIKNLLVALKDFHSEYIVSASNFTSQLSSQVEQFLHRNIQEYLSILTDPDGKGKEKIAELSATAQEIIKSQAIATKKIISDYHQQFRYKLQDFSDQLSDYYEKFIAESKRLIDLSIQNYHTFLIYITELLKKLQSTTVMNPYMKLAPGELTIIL

For the molecule `O=S(=O)([O-])c1cccc(N=Nc2ccc(Nc3ccccc3)cc2)c1.[Na+]` [Metanyl yellow], the “Self-fluorescence present or not” value in data set [1] was “no self-fluorescence”.

Turning to `Cc1cc(-c2ccc(/N=N/c3ccc4c(S(=O)(=O)O)cc(S(=O)(=O)O)c(N)c4c3O)c(C)c2)ccc1/N=N/c1ccc2c(S(=O)(=O)O)cc(S(=O)(=O)O)c(N)c2c1O` [Evans blue], the “Self-fluorescence present or not” value in data set [1] was “no self-fluorescence”. Further, the Dye-evoked fluorescence colour result in data set [2] (setting [5]) and in data set [2] (setting [6]) was “O” throughout.

As for phosphatidylcholine [PC], in data set [1], the “Self-fluorescence present or not” value was “had self-fluorescence”. Also, the Self-fluorescence colour result in data set [1] (setting [7]) is recorded as “W”.

For the molecule `CC1=NN(c2cc(Cl)c(S(=O)(=O)[O-])cc2Cl)C(=O)C1N=Nc1ccc(S(=O)(=O)[O-])cc1.[Na+].[Na+]` (stereo not drawn) [Lissamine fast yellow], the “Self-fluorescence present or not” value in data set [1] was “no self-fluorescence”.

For `CC[n+]1c(-c2ccccc2)c2cc(N)ccc2c2ccc(N)cc21` [Homidium chloride], the “Self-fluorescence present or not” value in data set [1] is “has self-fluorescence”. Besides, the figures for the Self-fluorescence colour result in data set [1] (setting [7]) and in data set [1] (setting [8]) were “Y” and “O”, respectively. For the same molecule, the Dye-evoked fluorescence colour entry in data set [3] (setting [5]) and in data set [3] (setting [6]) was “RO” each time.

On to `CCCCC/C=C\C/C=C\CCCCCCCC(=O)O[C@H]1CC[C@@]2(C)C(=CC[C@H]3[C@@H]4CC[C@H]([C@H](C)CCCC(C)C)[C@@]4(C)CC[C@@H]32)C1` [Cholesteryl linolate], for which the “Self-fluorescence present or not” value in data set [1] is reported as “had self-fluorescence”. Moreover, the Self-fluorescence colour result in data set [1] (setting [7]) is “W”; in data set [1] (setting [8]), “Y”.

As to `CC[N+](CC)=c1ccc2nc3c(cc(N)c4ccccc43)oc-2c1` [Nile blue], the “Self-fluorescence present or not” value in data set [1] was “no self-fluorescence”. The Dye-evoked fluorescence colour entry in data set [2] (setting [5]) is “O”; in data set [2] (setting [6]) it was “G”.

As for `CC(C)CCC[C@@H](C)[C@H]1CC[C@H]2[C@@H]3CC=C4C[C@@H](O)CC[C@]4(C)[C@H]3CC[C@]12C` [free Cholesterol], in data set [1], the “Self-fluorescence present or not” value is “had self-fluorescence”. Moreover, the Self-fluorescence colour entry in data set [1] (setting [7]) was “W”; in data set [1] (setting [8]) it was “Y”.

`Cc1cc(-c2ccc(/N=N/c3c(S(=O)(=O)[O-])cc4cc(S(=O)(=O)[O-])cc(N)c4c3O)c(C)c2)ccc1/N=N/c1c(S(=O)(=O)[O-])cc2cc(S(=O)(=O)[O-])cc(N)c2c1O.[Na+].[Na+].[Na+].[Na+]` [Tripan blue]: the “Self-fluorescence present or not” value in data set [1] is listed as “no self-fluorescence”. For the same molecule, the Dye-evoked fluorescence colour result in data set [2] (setting [6]) is given as “O”; in data set [4] it was “P”.

Turning to `CC1=C(/C=C/C(C)=C/C=C/C(C)=C/C=C/C=C(C)/C=C/C=C(C)/C=C/C2=C(C)CCCC2(C)C)C(C)(C)CCC1` [beta-Carotene], the “Self-fluorescence present or not” value in data set [1] is on record as “had self-fluorescence”. The Self-fluorescence colour result in data set [1] (setting [7]) and in data set [1] (setting [8]) was “O” in each case.
